{"source": "PubChem BioAssay AID256", "about": "(DTP/NCI, 2004)", "test_system": "CD2F1 mice, L1210 leukemia ip, survival T/C", "assay": "NCI In Vivo Anticancer Drug Screen. Data for tumor model L1210 Leukemia (intraperitoneal) in CD2F1 (CDF1) mice", "settings": "higher = longer survival", "how_it_was_run": "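Mice carrying a transplanted tumor received test compound or vehicle alone. The value is the measurement in the treated group divided by that in the vehicle-treated control group.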", "key": {"[1]": {"settings": "endpoint: mean survival time, dose: 12.5 mg/kg/injection, schedule: Q01DX009 (ip), vehicle: saline with Tween-80"}, "[2]": {"settings": "endpoint: mean survival time, dose: 200.0 mg/kg/injection, schedule: Q04DX003 (ip), vehicle: saline with Tween-80"}, "[3]": {"settings": "endpoint: mean survival time, dose: 100.0 mg/kg/injection, schedule: Q01DX009 (ip), vehicle: saline with Tween-80"}, "[4]": {"settings": "endpoint: mean survival time, dose: 100.0 mg/kg/injection, schedule: Q04DX003 (ip), vehicle: saline with Tween-80"}, "[5]": {"settings": "endpoint: mean survival time, dose: 200.0 mg/kg/injection, schedule: Q01DX009 (ip), vehicle: saline with Tween-80"}, "[6]": {"settings": "endpoint: mean survival time, dose: 400.0 mg/kg/injection, schedule: Q01DX009 (ip), vehicle: saline with Tween-80"}, "[7]": {"settings": "endpoint: mean survival time, dose: 400.0 mg/kg/injection, schedule: Q04DX003 (ip), vehicle: saline with Tween-80"}}, "note": "Values joined by “and” are separate entries in the source; they are usually repeats but may differ in a detail not shown here. Identical values can stand only once. Toxic doses and inconclusive results are not listed.", "data": [{"smiles": "OCc1ccc2[n+](c1)CCc1c-2[nH]c2ccccc12", "values": [{"measurement": "T/C", "setting": "endpoint: mean survival time, dose: 12.5 mg/kg/injection, schedule: Q01DX001 (ip), vehicle: saline with Tween-80", "value": "96 % of control"}, {"measurement": "T/C", "setting": "[1]", "value": "98 % of control"}, {"measurement": "T/C", "setting": "endpoint: mean survival time, dose: 25.0 mg/kg/injection, schedule: Q01DX001 (ip), vehicle: saline with Tween-80", "value": "101 % of control"}, {"measurement": "T/C", "setting": "endpoint: mean survival time, dose: 25.0 mg/kg/injection, schedule: Q01DX009 (ip), vehicle: saline with Tween-80", "value": "94 % of control"}, {"measurement": "T/C", "setting": "endpoint: mean survival time, dose: 50.0 mg/kg/injection, schedule: Q01DX001 (ip), vehicle: saline with Tween-80", "value": "101 % of control"}, {"measurement": "T/C", "setting": "endpoint: mean survival time, dose: 50.0 mg/kg/injection, schedule: Q01DX009 (ip), vehicle: saline with Tween-80", "value": "100 % of control"}]}, {"smiles": "COc1cc(OC)c(OC)cc1/C=c1\\[nH]c(=O)/c(=C/c2cc(OC)c(OC)cc2OC)[nH]c1=O", "values": [{"measurement": "T/C", "setting": "endpoint: mean survival time, dose: 3.13 mg/kg/injection, schedule: Q01DX009 (ip), vehicle: saline with Tween-80", "value": "102 % of control"}, {"measurement": "T/C", "setting": "endpoint: mean survival time, dose: 6.25 mg/kg/injection, schedule: Q01DX009 (ip), vehicle: saline with Tween-80", "value": "90 % of control"}, {"measurement": "T/C", "setting": "[1]", "value": "91 % of control"}, {"measurement": "T/C", "setting": "[2]", "value": "87 % of control"}]}, {"smiles": "CC(C)(C)OOCC1CO1", "note": "(stereo not given)", "values": [{"measurement": "T/C", "setting": "[3]", "value": "92 % of control"}, {"measurement": "T/C", "setting": "[4]", "value": "98 % of control"}, {"measurement": "T/C", "setting": "[5]", "value": "94 % of control"}, {"measurement": "T/C", "setting": "[2]", "value": "105 % of control"}, {"measurement": "T/C", "setting": "[6]", "value": "98 % of control"}, {"measurement": "T/C", "setting": "[7]", "value": "96 % of control"}]}, {"smiles": "COc1cc(C2=NCCO2)cc(OC)c1OC", "values": [{"measurement": "T/C", "setting": "[4]", "value": "103 % of control"}, {"measurement": "T/C", "setting": "[2]", "value": "93 % of control"}, {"measurement": "T/C", "setting": "[7]", "value": "93 % of control"}]}, {"smiles": "c1ccc(C2OCC3(CO2)COC(c2ccccc2)OC3)cc1", "note": "(stereo not given)", "values": [{"measurement": "T/C", "setting": "[3]", "value": "88 % of control"}, {"measurement": "T/C", "setting": "[4]", "value": "94 % of control"}, {"measurement": "T/C", "setting": "[5]", "value": "91 % of control"}, {"measurement": "T/C", "setting": "[2]", "value": "92 % of control"}, {"measurement": "T/C", "setting": "[7]", "value": "92 % of control"}]}, {"smiles": "O=S(=O)(O)O.[NH-]CC(=O)O.[NH-]CC(=O)O.[NH-]CC(=O)O.[NH-]CC(=O)O.[Pt+2].[Pt+2]", "values": [{"measurement": "T/C", "setting": "endpoint: mean survival time, dose: 3.13 mg/kg/injection, schedule: Q04DX003 (ip), vehicle: distilled water + Tween-80", "value": "101 % of control"}, {"measurement": "T/C", "setting": "endpoint: mean survival time, dose: 6.25 mg/kg/injection, schedule: Q04DX003 (ip), vehicle: distilled water + Tween-80", "value": "104 % of control"}, {"measurement": "T/C", "setting": "endpoint: mean survival time, dose: 12.5 mg/kg/injection, schedule: Q04DX003 (ip), vehicle: distilled water + Tween-80", "value": "97 % of control"}, {"measurement": "T/C", "setting": "endpoint: mean survival time, dose: 25.0 mg/kg/injection, schedule: Q04DX003 (ip), vehicle: distilled water + Tween-80", "value": "112 % of control"}, {"measurement": "T/C", "setting": "endpoint: mean survival time, dose: 50.0 mg/kg/injection, schedule: Q04DX003 (ip), vehicle: distilled water + Tween-80", "value": "98 % of control"}]}, {"smiles": "CC([NH-])CC(C)[NH-].[Br][Pt+2][Br]", "note": "(stereo not given)", "values": [{"measurement": "T/C", "setting": "endpoint: mean survival time, dose: 3.12 mg/kg/injection, schedule: Q04DX003 (ip), vehicle: saline with Tween-80", "value": "120 % of control and 124 % of control"}, {"measurement": "T/C", "setting": "endpoint: mean survival time, dose: 12.5 mg/kg/injection, schedule: Q04DX003 (ip), vehicle: saline with Tween-80", "value": "150 % of control"}]}, {"smiles": "N#CCc1ccc(N=Nc2c(N)nc(N)nc2N)cc1", "values": [{"measurement": "T/C", "setting": "[4]", "value": "92 % of control"}, {"measurement": "T/C", "setting": "[2]", "value": "104 % of control"}, {"measurement": "T/C", "setting": "[7]", "value": "101 % of control"}]}, {"smiles": "COc1ccc(CC(O)CO)cc1OCc1ccccc1", "note": "(stereo not given)", "values": [{"measurement": "T/C", "setting": "[3]", "value": "95 % of control"}, {"measurement": "T/C", "setting": "[5]", "value": "96 % of control"}, {"measurement": "T/C", "setting": "[6]", "value": "98 % of control"}]}, {"smiles": "COc1ccc2c(c1O)-c1cc(O)cc3c1C(C2)N(CCCl)CC3", "note": "(stereo not given)", "values": [{"measurement": "T/C", "setting": "endpoint: mean survival time, dose: 3.13 mg/kg/injection, schedule: Q04DX003 (ip), vehicle: water", "value": "104 % of control"}, {"measurement": "T/C", "setting": "endpoint: mean survival time, dose: 6.25 mg/kg/injection, schedule: Q04DX003 (ip), vehicle: water", "value": "102 % of control"}, {"measurement": "T/C", "setting": "endpoint: mean survival time, dose: 12.5 mg/kg/injection, schedule: Q04DX003 (ip), vehicle: water", "value": "105 % of control"}, {"measurement": "T/C", "setting": "endpoint: mean survival time, dose: 25.0 mg/kg/injection, schedule: Q04DX003 (ip), vehicle: DMSO", "value": "102 % of control"}, {"measurement": "T/C", "setting": "endpoint: mean survival time, dose: 25.0 mg/kg/injection, schedule: Q04DX003 (ip), vehicle: water", "value": "100 % of control"}, {"measurement": "T/C", "setting": "endpoint: mean survival time, dose: 50.0 mg/kg/injection, schedule: Q04DX003 (ip), vehicle: water", "value": "88 % of control"}]}, {"smiles": "CN1NC=Nc2c(SCc3ccccc3)ncnc21", "values": [{"measurement": "T/C", "setting": "endpoint: mean survival time, dose: 75.0 mg/kg/injection, schedule: Q01DX001 (ip), vehicle: other", "value": "98 % of control"}]}, {"smiles": "CCC1(O)CC2CN(CCc3c([nH]c4ccccc34)C(C(=O)OC)(c3cc4c(cc3OC)N(C)C3C(O)(C(=O)NCCSSCCNC(=O)C5(O)C(O)C6(CC)C=CCN7CCC8(c9cc(C%10(C(=O)OC)CC%11CN(CCc%12c%10[nH]c%10ccccc%12%10)CC(O)(CC)C%11)c(OC)cc9N(C)C58)C76)C(O)C5(CC)C=CCN6CCC43C65)C2)C1", "note": "(stereo not given)", "values": [{"measurement": "T/C", "setting": "endpoint: median survival time, dose: 1.08 mg/kg/injection, schedule: Q01DX009 (ip), vehicle: suspension in saline", "value": "111 % of control"}]}]}
